Measurements: patent publication US12559454B2, “Benzenesulfonamide derivatives and uses thereof” (2692372 Ontario, Inc., priority 2019, dated 2026)

Assays:
[1] = biological target: T1, BTK (Homo sapiens, UniProt Q06187); assay: In vitro BTK inhibition (no preincubation); format: biochemical
[2] = biological target: T1, BTK; assay: BTK irreversible inhibition, enzyme kinetic analysis; format: biochemical; settings: 0.1 nM BTK, 500 μM ATP
Experimental: One of ordinary skill in the art will recognize that this is consistent with the irreversible inhibition of BTK by compound I-A1.
One of ordinary skill in the art will recognize that this is consistent with the irreversible inhibition of BTK by compound I-A6.
One of ordinary skill in the art will recognize that this is consistent with the irreversible inhibition of BTK by compound 3A-2.
The shift of IC50 to a lower value after pre-incubation of the enzyme indicates to one of ordinary skill in the art that a significant portion of the enzyme was inhibited irreversibly during the incubation period.

[3] = biological target: T2, His-tagged BTK kinase domain (Homo sapiens, UniProt Q06187); assay: Mass spectral analysis of tryptic digest of BTK kinase domain; format: binding; settings: 10 μM BTK KD, 10 μM compound, 45 min; for C481 covalent modification: tryptic peptide 467-487
T2 construct: Intact His-tagged BTK kinase domain (SOURCE)(10 μM) was incubated
T2 sequence (Q06187 402-655 limits assumed): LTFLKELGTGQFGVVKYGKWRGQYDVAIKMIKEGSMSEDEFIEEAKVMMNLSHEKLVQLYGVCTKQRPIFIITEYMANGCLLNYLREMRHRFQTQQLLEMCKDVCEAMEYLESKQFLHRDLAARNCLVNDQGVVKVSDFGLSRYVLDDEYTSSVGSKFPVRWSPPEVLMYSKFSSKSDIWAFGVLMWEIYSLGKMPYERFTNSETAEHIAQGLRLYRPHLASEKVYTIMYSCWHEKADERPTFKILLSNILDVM
Experimental: A protein kinase that is inhibited by compound and/or pharmaceutically acceptable salt of the present disclosure may be subjected to mass spectral analysis to assess the formation of permanent, irreversible covalent adducts. […] Such methods identify permanent, irreversible covalent protein adducts by observing a mass peak that corresponds to the mass of a control sample plus the mass of an irreversible adduct.
After the incubation time, the reactions were quenched by acetone precipitation and the pellet was re-dissolved in 8 M Urea. […] The BTK protein band was then excised and subjected to an in-gel trypsin digest by reducing the protein (5 mM DTT), alkylating the thiols with iodoacetamide (15 mM), and then incubating the protein gel band with trypsin in a 37 C water bath (4 hours). The tryptic digestion was then quenched by the addition of trifluoroacetic acid, and peptides were removed from the gel band by sonicating with increasing amounts of acetonitrile (0%, 30%, & 60%). Peptides were then purified using C18 ziptips, spotted on the MALDI target plate with α-cyano-4-hydroxycinnamic acid as the desorption matrix (10 mg/mL in 0.10% TFA:Acetonitrile 50:50), and analyzed in reflectron mode.

[4] = test system: MV4-11 cells; assay: CellTiter-Blue cell viability, MV-4-11; format: cell-based; settings: Homo sapiens, 72 hrs exposure
Experimental: (§1) Anti-cancer efficacy of exemplary compounds of this application was assessed in vitro in different cancer cell lines. Cell viability was examined following treatment at various concentration of inhibitor (0.097656-50 μM) using a cell Titer-Blue cell viability assay. 1×10^4 cells (NHF, MV4-11, K562 and MOLM-13 cells)/well were plated in 96-well assay plates in culture medium. All cells were grown in DMEM, IMDM and RPMI-1640 supplemented with 10% FBS. After 24 hrs, test compounds and vehicle controls were added to appropriate wells so the final volume was 100 μl in each well. The cells were cultured for the desired test exposure period (72 hrs) at 37° C. and 5% CO2. The assay plates were removed from 37° C. incubator and 20 μl/well of CellTiter-Blue® Reagent was added. The plates were incubated using standard cell culture conditions for 1-4 hours and the plates were shaken for 10 seconds and record fluorescence at 560/590 nm.

[5] = test system: MOLM-13 cells; assay: CellTiter-Blue cell viability, MOLM-13; format: cell-based; settings: Homo sapiens, 72 hrs exposure
Experimental: as §1

[6] = test system: K562 cells; assay: CellTiter-Blue cell viability, K562; format: cell-based; settings: Homo sapiens, 72 hrs exposure
Experimental: as §1

[7] = test system: tubulin; assay: Tubulin polymerization assay; format: biochemical; settings: for % Inhibition: Vmax normalized to tubulin only control; for % D.O.P.: degree of polymerization relative to tubulin control
Experimental: A96-well half-area clear flat-bottom microplate (Corning® #3697) was pre-heated in a plate reader (Cytation 3, BioTek) at 37° C. for 15 minutes prior to the start of each assay. Tubulin polymerization buffer (80 mM PIPES pH 6.9, 2 mM MgCl2, 0.5 mM EGTA, 15% glycerol, 1 mM GTP) was prepared from stock solutions and placed on ice. Inhibitors were prepared to M concentrations in buffer (80 mM PIPES pH 6.9, 2 mM MgCl2, 0.5 mM EGTA, 5% DMSO) from DMSO stock solutions. After the assay plate was pre-warmed, 10 μL of inhibitor or buffer control was added to selected wells. Every assay contained a tubulin only negative control for normalization of data, and a batabulin positive control. The assay plate was incubated at 37° C. for 3 minutes. During this time, a frozen aliquot of tubulin (10 mg/mL) in buffer (80 mM PIPES pH 6.9, 2 mM MgCl2, 0.5 mM EGTA) was defrosted by placing in a room temperature water bath. Once thawed, 200 μL of tubulin was mixed with 420 μL ice cold tubulin polymerization buffer (3 mg/mL tubulin in 80 mM PIPES, pH 6.9, 2 mM MgCl2, 0.5 mM EGTA, 1 mM GTP, 10.2% glycerol). To a 96-well plate on ice, aliquots of 100 μL tubulin was added to each well. From this plate, 90 μL of tubulin was immediately pipetted into all sample wells of the warmed assay plate using a multi-channel pipette. The assay plate was immediately put in the reader at 37° C. and shook for 5 s with orbital shaking at medium speed. The reader recorded the absorbance at 340 nm every 15 s for 30 min.
The resulting absorbance curves were normalized by subtracting each data point by the absorbance at time 0.
The largest change in absorbance over the assay time course was also recorded and related to the tubulin control as the % degree of polymerization (% D.O.P.).

T1 sequence (Q06187 whole entry, species assumed): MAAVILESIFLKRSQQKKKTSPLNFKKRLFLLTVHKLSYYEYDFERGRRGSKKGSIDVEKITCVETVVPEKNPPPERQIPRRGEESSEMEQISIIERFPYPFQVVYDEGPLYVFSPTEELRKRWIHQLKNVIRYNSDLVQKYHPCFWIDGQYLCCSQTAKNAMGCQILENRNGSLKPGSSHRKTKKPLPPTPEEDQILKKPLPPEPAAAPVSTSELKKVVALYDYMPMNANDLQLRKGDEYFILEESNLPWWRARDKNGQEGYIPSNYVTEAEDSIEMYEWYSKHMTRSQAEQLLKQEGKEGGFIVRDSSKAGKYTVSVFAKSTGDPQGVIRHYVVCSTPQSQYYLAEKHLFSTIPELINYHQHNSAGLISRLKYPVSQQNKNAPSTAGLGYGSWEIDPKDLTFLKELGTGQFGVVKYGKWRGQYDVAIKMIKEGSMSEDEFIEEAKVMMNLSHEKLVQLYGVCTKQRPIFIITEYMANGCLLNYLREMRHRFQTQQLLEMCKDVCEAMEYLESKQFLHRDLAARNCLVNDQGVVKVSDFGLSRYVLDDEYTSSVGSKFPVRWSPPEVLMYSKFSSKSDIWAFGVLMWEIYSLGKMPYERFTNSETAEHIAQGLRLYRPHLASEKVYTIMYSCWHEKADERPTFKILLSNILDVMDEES

SMILES | IC50 [4] [nM] | IC50 [5] [nM] | IC50 [6] [nM] | % Inhibition [7] | % D.O.P. [7] | also measured
Nc1ncnc2c1c(-c1ccc(Oc3ccccc3)cc1)nn2[C@@H]1CCCN(S(=O)(=O)c2c(F)c(F)c(F)c(F)c2OCC(F)(F)F)C1 [Compound 3A-2, (R)-3-(4-phenoxyphenyl)-1-(1-((2,3,4,5-tetrafluoro-6-(2,2,2 trifluoroethoxy)phenyl)sulfonyl)piperidin-3-yl)-1H-pyrazolo[3,4-d]pyrimidin-4-amine] | – | – | – | – | – | IC50 ([1]; Table 17): 100 to 1000 nM; inhibition profile by enzyme kinetic analysis [2]: time-dependent inhibition; kinact ([2]; saturation kinetics): 0.00169 s⁻¹; Ki ([2]; saturation kinetics of irreversible inhibition): 120 nM
Nc1ncnc2c1c(-c1ccc(Oc3ccccc3)cc1)nn2[C@@H]1CCN(S(=O)(=O)c2cc(F)c(F)c(F)c2F)C1 [Compound 3A-4, 3-(4-phenoxyphenyl)-1-[(3R)-1-(2,3,4,5-tetrafluorophenyl)sulfonylpyrrolidin-3-yl]pyrazolo[3,4-d]pyrimidin-4-amine] | – | – | – | – | – | C481 covalent modification [3]: covalent modification and ✓
Nc1ncnc2c1c(-c1ccc(Oc3ccccc3)cc1)nn2CCNS(=O)(=O)c1c(F)c(F)c(F)c(F)c1F [Compound 3A-9, N-[2-[4-amino-3-(4-phenoxyphenyl)pyrazolo[3,4-d]pyrimidin-1-yl]ethyl]-2,3,4,5,6-pentafluoro-benzenesulfonamide] | – | – | – | – | – | IC50 ([1]; Table 18): 0.1 to 10 nM; C481 covalent modification [3]: covalent modification and ✓; C527 covalent modification ([3]; tryptic peptide 526-536): covalent modification and ✓
Nc1ncnc2c1c(-c1ccc(Oc3ccccc3)cc1)nn2CCCNS(=O)(=O)c1c(F)c(F)c(F)c(F)c1F [Compound 3A-10, N-(3-(4-amino-3-(4-phenoxyphenyl)-1H-pyrazolo[3,4-d]pyrimidin-1-yl)propyl)-2,3,4,5,6-pentafluorobenzenesulfonamide] | – | – | – | – | – | IC50 ([1]; Table 17): 0.1 to 10 nM
Nc1ncnc2c1c(-c1ccc(Oc3ccccc3)cc1)nn2C1CN(S(=O)(=O)c2c(F)c(F)c(F)c(F)c2F)C1 [Compound 3A-24, 1-(1-((perfluorophenyl)sulfonyl)azetidin-3-yl)-3-(4-phenoxyphenyl)-1H-pyrazolo[3,4-d]pyrimidin-4-amine] | – | – | – | – | – | IC50 ([1]; Table 17): 0.1 to 10 nM
COCCOc1ccc(Nc2ncc(F)c(NCCNS(=O)(=O)c3c(F)c(F)c(F)c(F)c3F)n2)cc1 [Compound 3A-37, 2,3,4,5,6-pentafluoro-N-(2-((5-fluoro-2-((4-(2-methoxyethoxy)phenyl)amino)pyrimidin-4-yl)amino)ethyl)benzenesulfonamide] | – | – | – | – | – | C481 covalent modification [3]: covalent modification and ✓
COCCOc1ccc(Nc2ncc(F)c(Nc3ccc(NS(=O)(=O)c4c(F)c(F)c(F)c(F)c4F)cc3)n2)cc1 [Compound 3A-38, 2,3,4,5,6-pentafluoro-N-(4-((5-fluoro-2-((4-(2-methoxyethoxy)phenyl)amino)pyrimidin-4-yl)amino)phenyl)benzenesulfonamide] | – | – | – | – | – | C481 covalent modification [3]: covalent modification and ✓
COc1ccc(NS(=O)(=O)c2c(F)c(F)c(F)c(F)c2OC2COC2)cc1F [Compound I-72, 2,3,4,5-tetrafluoro-N-(3-fluoro-4-methoxyphenyl)-6-(oxetan-3-yloxy)benzenesulfonamide] | 100 to 1000 | > 10000 | > 10000 | A (<10%) | A (>85%) | –
COc1ccc(NS(=O)(=O)c2c(F)c(F)c(F)c(F)c2OCC2COC2)cc1F [Compound I-73, 2,3,4,5-tetrafluoro-N-(3-fluoro-4-methoxyphenyl)-6-(oxetan-3-ylmethoxy)benzenesulfonamide] | 100 to 1000 | 1000 to 10000 | 1000 to 10000 | A (<10%) | A (>85%) | –
COc1ccc(NS(=O)(=O)c2c(F)c(F)c(F)c(F)c2OCC(C)(C)C)cc1F [Compound I-74, 2,3,4,5-tetrafluoro-N-(3-fluoro-4-methoxyphenyl)-6-(neopentyloxy)benzenesulfonamide] | > 10000 | > 10000 | > 10000 | A (<10%) | A (>85%) | –
COc1ccc(NS(=O)(=O)c2c(F)c(F)c(F)c(F)c2Oc2ccc(O)cc2)cc1F [Compound I-77, 2,3,4,5-tetrafluoro-N-(3-fluoro-4-methoxyphenyl)-6-(4-hydroxyphenoxy)benzenesulfonamide] | 1000 to 10000 | > 10000 | > 10000 | A (<10%) | A (>85%) | –
COc1ccc(NS(=O)(=O)c2c(F)c(F)c(F)c(F)c2Oc2ccc(OC)c(F)c2)cc1F [Compound I-78, 2,3,4,5-tetrafluoro-6-(3-fluoro-4-methoxyphenoxy)-N-(3-fluoro-4-methoxyphenyl)benzenesulfonamide] | 1000 to 10000 | 1000 to 10000 | 1000 to 10000 | B (10-20%) | B (< 85%) | –
COc1ccc(Oc2c(F)c(F)c(F)c(F)c2S(=O)(=O)Nc2ccc(OC)c(F)c2)cc1 [Compound I-79, 2,3,4,5-tetrafluoro-N-(3-fluoro-4-methoxyphenyl)-6-(4-methoxyphenoxy)benzenesulfonamide] | 1000 to 10000 | 1000 to 10000 | > 10000 | A (<10%) | A (>85%) | –
COc1ccc(NS(=O)(=O)c2c(F)c(F)c(F)c(F)c2OCF)cc1F [Compound I-83, 2,3,4,5-tetrafluoro-N-(3-fluoro-4-methoxyphenyl)-6-(fluoromethoxy)benzenesulfonamide] | ≤ 100 | ≤ 100 | ≤ 100 | C (>20%) | B (< 85%) | –
COc1ccc(NS(=O)(=O)c2c(F)c(F)c(F)c(F)c2C(=O)C(F)(F)F)cc1F [Compound I-90, 2,3,4,5-tetrafluoro-N-(3-fluoro-4-methoxyphenyl)-6-(2,2,2-trifluoroacetyl)benzenesulfonamide] | 1000 to 10000 | 1000 to 10000 | > 10000 | A (<10%) | A (>85%) | –
COc1ccc(NS(=O)(=O)c2cc(F)c(F)c(F)c2F)cc1F [Compound I-93, 2,3,4,5-tetrafluoro-N-(3-fluoro-4-methoxyphenyl)benzenesulfonamide] | ≤ 100 | 100 to 1000 | ≤ 100 | C (>20%) | B (< 85%) | –
